PubChem BioAssay (NCI)
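Grown in 96-well plates, cells were treated for 48 hours with each compound at five concentrations. Insufficient inhibition: endpoint recorded as highest concentration tested. GI50 marks 50% less growth. At the TGI there is no net growth.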

Experiments:
Experiment in all cases: DTP human tumour cell line panel, 48 h
786-0 renal = system: 786-0 renal
A498 renal = system: A498 renal
A549 NSCLC = system: A549 NSCLC
ACHN renal = system: ACHN renal
BT-549 breast = system: BT-549 breast
CAKI-1 renal = system: CAKI-1 renal
CCRF-CEM leukemia = system: CCRF-CEM leukemia
COLO 205 colon = system: COLO 205 colon
DU-145 prostate = system: DU-145 prostate
EKVX NSCLC = system: EKVX NSCLC
HCC-2998 colon = system: HCC-2998 colon
HCT-116 colon = system: HCT-116 colon
HCT-15 colon = system: HCT-15 colon
HL-60(TB) leukemia = system: HL-60(TB) leukemia
HOP-62 NSCLC = system: HOP-62 NSCLC
HOP-92 NSCLC = system: HOP-92 NSCLC
HS 578T breast = system: HS 578T breast
HT29 colon = system: HT29 colon
IGROV1 ovarian = system: IGROV1 ovarian
K-562 leukemia = system: K-562 leukemia
KM12 colon = system: KM12 colon
LOX IMVI melanoma = system: LOX IMVI melanoma
M14 melanoma = system: M14 melanoma
MALME-3M melanoma = system: MALME-3M melanoma
MCF7 breast = system: MCF7 breast
MDA-MB-231 breast = system: MDA-MB-231 breast
MDA-MB-435 = system: MDA-MB-435
MDA-MB-468 breast = system: MDA-MB-468 breast
MOLT-4 leukemia = system: MOLT-4 leukemia
NCI-H226 lung = system: NCI-H226 lung
NCI-H23 lung = system: NCI-H23 lung
NCI-H460 lung = system: NCI-H460 lung
NCI-H522 lung = system: NCI-H522 lung
NCI/ADR-RES ovarian = system: NCI/ADR-RES ovarian
OVCAR-3 ovarian = system: OVCAR-3 ovarian
OVCAR-4 ovarian = system: OVCAR-4 ovarian
OVCAR-5 ovarian = system: OVCAR-5 ovarian
OVCAR-8 ovarian = system: OVCAR-8 ovarian
PC-3 prostate = system: PC-3 prostate
RPMI-8226 leukemia = system: RPMI-8226 leukemia
RXF 393 renal = system: RXF 393 renal
SF-268 CNS = system: SF-268 CNS
SF-295 CNS = system: SF-295 CNS
SF-539 CNS = system: SF-539 CNS
SK-MEL-2 melanoma = system: SK-MEL-2 melanoma
SK-MEL-28 melanoma = system: SK-MEL-28 melanoma
SK-MEL-5 melanoma = system: SK-MEL-5 melanoma
SK-OV-3 ovarian = system: SK-OV-3 ovarian
SN12C renal = system: SN12C renal
SNB-19 CNS = system: SNB-19 CNS
SNB-75 CNS = system: SNB-75 CNS
SR leukemia = system: SR leukemia
SW-620 colon = system: SW-620 colon
T-47D breast = system: T-47D breast
TK-10 renal = system: TK-10 renal
U251 CNS = system: U251 CNS
UACC-257 melanoma = system: UACC-257 melanoma
UACC-62 melanoma = system: UACC-62 melanoma
UO-31 renal = system: UO-31 renal

Structure (SMILES): CC(=O)Nc1nc(-c2ccc(N3CCN(C)CC3)c(NS(=O)(=O)c3ccc(C(F)(F)F)cc3)c2)cs1
- GI50 (786-0 renal): 5.18 µM
- TGI (786-0 renal): 12.6 µM
- GI50 (A498 renal): 6.64 µM
- TGI (A498 renal): 13.5 µM
- GI50 (A549 NSCLC): 7.24 µM
- TGI (A549 NSCLC): 16.3 µM
- GI50 (ACHN renal): 4.67 µM
- TGI (ACHN renal): 11.1 µM
- GI50 (BT-549 breast): 5.83 µM
- TGI (BT-549 breast): 12.8 µM
- GI50 (CAKI-1 renal): 3.91 µM
- TGI (CAKI-1 renal): 11 µM
- GI50 (CCRF-CEM leukemia): 1970 nM
- TGI (CCRF-CEM leukemia): 9.86 µM
- GI50 (COLO 205 colon): 7.95 µM
- TGI (COLO 205 colon): 18.7 µM
- GI50 (DU-145 prostate): 6.51 µM
- TGI (DU-145 prostate): 14.5 µM
- GI50 (EKVX NSCLC): 7.41 µM
- TGI (EKVX NSCLC): 14.5 µM
- GI50 (HCC-2998 colon): 7.51 µM
- TGI (HCC-2998 colon): 14.5 µM
- GI50 (HCT-116 colon): 3.01 µM
- TGI (HCT-116 colon): 11.9 µM
- GI50 (HCT-15 colon): 3.18 µM
- TGI (HCT-15 colon): 10.8 µM
- GI50 (HL-60(TB) leukemia): 3.35 µM
- TGI (HL-60(TB) leukemia): 19.1 µM
- GI50 (HOP-62 NSCLC): 9.06 µM
- TGI (HOP-62 NSCLC): 17.2 µM
- GI50 (HOP-92 NSCLC): 5.34 µM
- TGI (HOP-92 NSCLC): 14.1 µM
- GI50 (HS 578T breast): 5.77 µM
- TGI (HS 578T breast): 20.2 µM
- GI50 (HT29 colon): 4.77 µM
- TGI (HT29 colon): 16 µM
- GI50 (IGROV1 ovarian): 6.41 µM
- TGI (IGROV1 ovarian): 13 µM
- GI50 (K-562 leukemia): 5.47 µM
- TGI (K-562 leukemia): 53 µM
- GI50 (KM12 colon): 7.55 µM
- TGI (KM12 colon): 16.4 µM
- GI50 (LOX IMVI melanoma): 2460 nM
- TGI (LOX IMVI melanoma): 8.87 µM
- GI50 (M14 melanoma): 7.25 µM
- TGI (M14 melanoma): 17.1 µM
- GI50 (MALME-3M melanoma): 6.73 µM
- TGI (MALME-3M melanoma): 13.5 µM
- GI50 (MCF7 breast): 2580 nM
- TGI (MCF7 breast): 10.6 µM
- GI50 (MDA-MB-231 breast): 5.78 µM
- TGI (MDA-MB-231 breast): 12.4 µM
- GI50 (MDA-MB-435): 4.08 µM
- TGI (MDA-MB-435): 12.6 µM
- GI50 (MDA-MB-468 breast): 2040 nM
- TGI (MDA-MB-468 breast): 7.95 µM
- GI50 (MOLT-4 leukemia): 5.34 µM
- TGI (MOLT-4 leukemia): 23.6 µM
- GI50 (NCI-H226 lung): 8.25 µM
- TGI (NCI-H226 lung): 19.1 µM
- GI50 (NCI-H23 lung): 8.11 µM
- TGI (NCI-H23 lung): 15.8 µM
- GI50 (NCI-H460 lung): 6.77 µM
- TGI (NCI-H460 lung): 14.8 µM
- GI50 (NCI-H522 lung): 3.62 µM
- TGI (NCI-H522 lung): 10.8 µM
- GI50 (NCI/ADR-RES ovarian): 6.97 µM
- TGI (NCI/ADR-RES ovarian): 21.6 µM
- GI50 (OVCAR-3 ovarian): 3.06 µM
- TGI (OVCAR-3 ovarian): 10.6 µM
- GI50 (OVCAR-4 ovarian): 6.72 µM
- TGI (OVCAR-4 ovarian): 14.6 µM
- GI50 (OVCAR-5 ovarian): 7.63 µM
- TGI (OVCAR-5 ovarian): 14.7 µM
- GI50 (OVCAR-8 ovarian): 8.2 µM
- TGI (OVCAR-8 ovarian): 23.9 µM
- GI50 (PC-3 prostate): 6.33 µM
- TGI (PC-3 prostate): 17.2 µM
- GI50 (RPMI-8226 leukemia): 2160 nM
- TGI (RPMI-8226 leukemia): 53 µM
- GI50 (RXF 393 renal): 2610 nM
- TGI (RXF 393 renal): 9.24 µM
- GI50 (SF-268 CNS): 6.99 µM
- TGI (SF-268 CNS): 16.4 µM
- GI50 (SF-295 CNS): 6.51 µM
- TGI (SF-295 CNS): 13.4 µM
- GI50 (SF-539 CNS): 4.12 µM
- TGI (SF-539 CNS): 10.8 µM
- GI50 (SK-MEL-2 melanoma): 7.27 µM
- TGI (SK-MEL-2 melanoma): 14.4 µM
- GI50 (SK-MEL-28 melanoma): 7.72 µM
- TGI (SK-MEL-28 melanoma): 14.7 µM
- GI50 (SK-MEL-5 melanoma): 6 µM
- TGI (SK-MEL-5 melanoma): 12.5 µM
- GI50 (SK-OV-3 ovarian): 10 µM
- TGI (SK-OV-3 ovarian): 19.6 µM
- GI50 (SN12C renal): 6.19 µM
- TGI (SN12C renal): 12.7 µM
- GI50 (SNB-19 CNS): 7.82 µM
- TGI (SNB-19 CNS): 14.8 µM
- GI50 (SNB-75 CNS): 2440 nM
- TGI (SNB-75 CNS): 9.48 µM
- GI50 (SR leukemia): 1980 nM
- TGI (SR leukemia): 37.6 µM
- GI50 (SW-620 colon): 3.21 µM
- TGI (SW-620 colon): 11.3 µM
- GI50 (T-47D breast): 4.71 µM
- TGI (T-47D breast): 13.2 µM
- GI50 (TK-10 renal): 7.04 µM
- TGI (TK-10 renal): 14 µM
- GI50 (U251 CNS): 7.52 µM
- TGI (U251 CNS): 15 µM
- GI50 (UACC-257 melanoma): 6.76 µM
- TGI (UACC-257 melanoma): 14 µM
- GI50 (UACC-62 melanoma): 6.08 µM
- TGI (UACC-62 melanoma): 12.6 µM
- GI50 (UO-31 renal): 6.13 µM
- TGI (UO-31 renal): 12.6 µM
